The series is described as follows: Human HepG2 cell viability assay in 384 well format. Set-up: dose 125 nL, time 70.5 hour; cytotoxicity at 70.5 h: concentration not given beside the values. The note with it: HepG2 cells, read-out: Inhibition. The series is classed as toxicity, cell-based.

Our source for the cytotoxicity values is ChEMBL document CHEMBL3507680, “University of Dundee, Gates Library screen for HepG2 cell viability”.

`CC(C(=O)Nc1nccs1)N(C)Cc1cccc(C#N)c1` (stereo not drawn): the cytotoxicity at 70.5 h was -11.6%.
The figure for `CCOc1ccccc1CCC(=O)Nc1c(C)nn(C)c1C` is 14.5%; for `COC1CCN(c2ccc(F)cc2CN(C)C(=O)c2cc[nH]n2)CC1` it is -13.3%; for `Cc1nnc2n1CCN(C(=O)C(C)Oc1ccc(C#N)cc1)C2` (stereo not drawn) it is -12.4%.
As for `CCN(C(=O)CS(=O)(=O)c1cc(OC)c(OC)cc1C)C1CC1`, the figure is -8.45%; as for `COc1cc(C)c(S(=O)(=O)CC(=O)N(C)C2CC2)cc1OC`, 15.2%; as for `CCc1oc(C(=O)N[C@@H]2c3ccccc3C[C@@H]2O)cc1C`, -5.26%.
The figure for `COc1ccc(CN(C)Cc2c(C)noc2C)c(Br)c1OC` is -8.43%; for `COCc1cccc(NCc2cccnc2)c1` it is -10.4%.
Turning to `COc1ccc(CN(C)Cc2c(C)noc2C)c(Cl)c1OC`, the cytotoxicity at 70.5 h was -8.81%.
On to `CCCN1CCC(N(C)CCC(=O)Nc2ccccc2SC)CC1`, for which the cytotoxicity at 70.5 h turned out to be 1.62%.
The figure for `O=C1CCCN1CCN1CCC(c2ccn[nH]2)CC1` is -7.63%; for `Cc1nc(-c2ccc(CC(=O)N3CCN(C(=O)C(C)C)CC3)cc2)cs1` it is -1.97%.
As for `Cc1nc(-c2ccc(CC(=O)N3CCN(C(=O)C4CC4)CC3)cc2)cs1`, the figure is -1.62%; as for `CC(=O)N1CCC(NC(=O)c2cc(Cl)ccc2-n2cnnn2)CC1`, -6.61%.
As for `O=C(NC1CCN(C2CC2)CC1)c1cc(Cl)ccc1-n1cnnn1`, the figure is 8.23%; as for `COc1ccc(C2CCCN2C(=O)c2ccc(=O)n(C)c2)cc1OC` (stereo not drawn), -6.18%.
Regarding `COc1cccc(CNCc2c(C)nc3sc(C)cn23)c1OC`, the cytotoxicity at 70.5 h was -1.69%.
The figure for `Cn1ccnc1CCNS(=O)(=O)c1ccc(Br)cc1` is 9.92%.
Take `CC1CN(C(=O)C2(c3cccc(F)c3)CCOCC2)CCO1` (stereo not drawn): the cytotoxicity at 70.5 h was -3.81%.
`O=C(c1ccc(CN2CCCC2)cc1)N1CCCC(n2cccn2)C1` (stereo not drawn): the cytotoxicity at 70.5 h was -5.06%.
`CN(C)Cc1ccc(C(=O)N2CCCC(n3cccn3)C2)cc1` (stereo not drawn): the cytotoxicity at 70.5 h was determined as 8.2%.
For the compound `CCN(CC)C(=O)CCNC(=O)c1c[nH]c2ccc(OC)cc12`, the cytotoxicity at 70.5 h is 1.48%.
For the compound `CSc1ccc(CNC2(c3ccc(F)cc3)CCOCC2)cc1`, the cytotoxicity at 70.5 h is -3.89%.
In the case of `CC(=O)N1CCC(NC(=O)c2cc(Cl)ccc2O)CC1`, the cytotoxicity at 70.5 h was -4.41%.
As for `Cc1nccn1CCCC(=O)Nc1nc(C(C)C)nn1C`, the cytotoxicity at 70.5 h was 10.2%.
For the compound `Cc1nc(CNC(=O)NCCC2=CCCC2)oc1C`, the cytotoxicity at 70.5 h turned out to be 7.64%.
Regarding `CCc1nc2n(n1)CC(NCc1cn(C)nc1-c1cccnc1)CC2` (stereo not drawn), the cytotoxicity at 70.5 h was -4.07%.
Take `CCc1n[nH]c(C2CN(CC(=O)N(C)Cc3ccco3)CCO2)n1` (stereo not drawn): the cytotoxicity at 70.5 h is -11.1%.
For `O=C1CCCN1CCN1CCCC(c2ccn[nH]2)C1` (stereo not drawn), the cytotoxicity at 70.5 h was determined as 27.7%.
`O=C(NCCNS(=O)(=O)c1cccc(Cl)c1)C1CCCO1` (stereo not drawn): the cytotoxicity at 70.5 h amounted to 6.97%.
As for `Cc1nnc(CSc2ccc(C(F)(F)F)cn2)o1`, the cytotoxicity at 70.5 h was found to be 2.72%.
Consider `Cc1noc(CSc2ccc(C(F)(F)F)cn2)n1`, for which the cytotoxicity at 70.5 h is -6.64%.
As to `COCCS(=O)(=O)Cc1nnnn1-c1ccccc1`, the cytotoxicity at 70.5 h is -2.53%.
`COc1ccnc(N2CCN(Cc3ncc(-c4ccccc4)o3)CC2)n1`: the cytotoxicity at 70.5 h amounted to 4.14%.
The figure for `CC(C(=O)N1CCN(CCOc2ccccc2)CC1)n1cncn1` (stereo not drawn) is 9.32%; for `CCn1cnnc1CNC(=O)N(C)Cc1cccc(Cl)c1Cl` it is -6.25%.
With `CNS(=O)(=O)c1ccc(CNC(=O)Nc2ccccn2)s1`, the cytotoxicity at 70.5 h was 3.18%.
As for `Cc1n[nH]c(C)c1CNC(=O)NC1CCCCC1`, the figure is -8.57%; as for `Cc1noc(C)c1CN(C)Cc1csc(-c2ncccn2)n1`, -3.82%.
As for `CC(C)(C)OC(=O)N1CCC(NC2CCS(=O)(=O)C2)CC1` (stereo not drawn), the figure is -8.07%; as for `O=C(NCCCC(=O)N1Cc2ccccc2C1)NCc1cccnc1`, -0.375%.
As for `CCN(CC)C(=O)Nc1ccc(N2CCSCC2)cc1C`, the figure is 8.14%.
For `O=C(NCCCC(=O)N1Cc2ccccc2C1)NCc1nccs1`, the cytotoxicity at 70.5 h was -5.34%.
The figure for `Cc1csc(C2(NC(=O)NCCN3CCOCC3)CCCC2)n1` is -7.84%.
In the case of `O=C(NCC1CCC2(CC1)OCCO2)c1ccncc1F`, the cytotoxicity at 70.5 h is -3.09%.
With `Cc1c(CS(C)(=O)=O)cccc1NCC1CCCCC1`, the cytotoxicity at 70.5 h amounted to 7.16%.
The figure for `Cc1cc(C)nc(NC2CC(=O)N(C(C)(C)C)C2)n1` (stereo not drawn) is 7.77%; for `Cc1c(CS(C)(=O)=O)cccc1NCCCC1CCCC1` it is -7.83%; for `Cc1cc(N2CCSCC2)ccc1NC(=O)N(CCO)C1CC1` it is -5.59%.
For the compound `Cc1nnc(C(C)NCC2(c3ccc(F)cc3)CCCCC2)o1` (stereo not drawn), the cytotoxicity at 70.5 h was -5.27%.
As for `Cc1noc(C)c1CN1CCC(c2nc3cc(Cl)ccc3o2)CC1`, the figure is -14.6%.
As for `CS(=O)(=O)NCCC1CCCCN1C(=O)NCCc1ccccc1` (stereo not drawn), the figure is 17.9%; as for `CC(CNC(=O)c1cc(Cl)ccc1I)N1CCCC1` (stereo not drawn), -17.1%; as for `CCOc1cccc(C(C)NC(=O)N2CCC3(CC2)OCCO3)c1` (stereo not drawn), -13.2%.
`COc1cccc(C(=O)NS(=O)(=O)c2cncc(Br)c2)c1OC`: the cytotoxicity at 70.5 h was -12.4%.
With `CCC(O)CN1CCN(C(=O)CN(C)c2ccc(Cl)cn2)CC1` (stereo not drawn), the cytotoxicity at 70.5 h is -5.06%.
Consider `Cc1nnc(C(C)NCC2(c3ccc(Cl)cc3)CCOCC2)o1` (stereo not drawn), for which the cytotoxicity at 70.5 h is -18.1%.
On to `Cc1cc(C)c2c(OCC(=O)NCC(O)C(F)(F)F)nn(C)c2n1` (stereo not drawn), for which the cytotoxicity at 70.5 h is -15.2%.
As to `Cc1noc(C)c1CN(C)C(=O)Nc1cnn(CC2CCCO2)c1` (stereo not drawn), the cytotoxicity at 70.5 h is -16.8%.
Regarding `CCc1cnc(CN(C)C(=O)Nc2cnn(CC3CCCO3)c2)s1` (stereo not drawn), the cytotoxicity at 70.5 h is -4.76%.
On to `CCS(=O)(=O)CCSc1cccc(C#N)c1`, for which the cytotoxicity at 70.5 h is -23.7%.
`CCCS(=O)(=O)CCSc1cccc(C#N)c1`: the cytotoxicity at 70.5 h was -11.2%.
Take `Cn1cc(Br)c(=O)c(NS(=O)(=O)c2ccc(Cl)cc2)c1`: the cytotoxicity at 70.5 h is -18.4%.
As for `CC(CNC(=O)c1ccc(Cl)cc1F)N1CCCC1` (stereo not drawn), the figure is -16.4%.
As for `CC(O)CN1CCN(C(=O)CN(C)c2ccc(C#N)cn2)CC1` (stereo not drawn), the figure is 10.3%; as for `Cc1cccc(C2(CNC(C)c3nnc(C)o3)CCCC2)c1` (stereo not drawn), -6.44%.
Turning to `Cc1cc(CN2CCN(C(=O)CCc3ccco3)CC2)on1`, the cytotoxicity at 70.5 h is -9.48%.
Consider `CC(=O)N1CCCN(C(=O)CN(C)c2ccc(Cl)cn2)CC1`, for which the cytotoxicity at 70.5 h amounted to 10.7%.
The figure for `Cn1ccnc1CNc1c(F)cccc1-n1cccn1` is -7.82%; for `COc1ccc(CCNC(=O)Nc2cc(C)nn2C)cc1` it is -2.92%; for `O=C(CCc1ccccc1Br)NCC(=O)NCc1ccccc1` it is -7.06%.
As for `COc1ccc(CN(C)C(=O)NC(C)c2nncn2C)cc1F` (stereo not drawn), the figure is -6.21%; as for `CCN(CC)c1ccc(NC(=O)NC(C)Cn2cccn2)cn1` (stereo not drawn), -6.74%; as for `O=C(c1ccn(-c2cccc(F)c2)n1)N1CCN(CC2CC2)CC1`, -7.87%.
As for `Cc1cc(NC(=O)NCC(c2ccsc2)N(C)C)n(C)n1` (stereo not drawn), the figure is -10.2%; as for `CC(NC(=O)N(C)Cc1cnn(C)c1)c1nncn1C` (stereo not drawn), -2.09%.
Take `Cc1nnc2n1CCN(Cc1csc(-c3cnn(C)c3)n1)C2`: the cytotoxicity at 70.5 h is -3.97%.
The figure for `CCc1nnc2n1CCN(Cc1csc(-c3ncccn3)n1)C2` is -9.92%.
The figure for `COc1ccc(CNC(=O)Nc2ccc(CN3CCOC3=O)cc2)cc1` is -0.36%.
As for `COCCNC(=O)Nc1ccc(CN2CCOC2=O)cc1`, the cytotoxicity at 70.5 h is -7%.
As for `Cn1nc2c(cc1=O)CN(CC(=O)Nc1cc(C(C)(C)C)no1)CC2`, the figure is 13.4%; as for `CCCn1nc2c(cc1=O)CN(CC(=O)Nc1cc(C)no1)CC2`, -7.27%; as for `Cc1ccc(S(=O)(=O)NC2CCC(=O)NC2)cc1Br` (stereo not drawn), -4.2%.
As for `Cn1cc(-c2csc(N3CCN(c4nccs4)CC3)n2)cn1`, the figure is -0.763%.
The figure for `O=C(CSc1ccc2c(c1)OCCO2)NS(=O)(=O)c1cc(F)ccc1F` is -7.36%.
With `COCCCNC(=O)CN(C)Cc1ccc(F)cc1Cl`, the cytotoxicity at 70.5 h worked out at 9.16%.
For `CC(NC(=O)N(C)Cc1cccc(OC(F)F)c1)c1nncn1C` (stereo not drawn), the cytotoxicity at 70.5 h is -5.84%.
Turning to `Cc1nc(C2CCCN(C(=O)c3sc(C)nc3C)C2)no1` (stereo not drawn), the cytotoxicity at 70.5 h amounted to 37.2%.
Regarding `Cc1nc(C2CCCN(C(=O)c3cnc(C)s3)C2)no1` (stereo not drawn), the cytotoxicity at 70.5 h was 10.2%.
As for `O=C(CN1CCc2ccccc21)NCc1ccc(Cl)cc1`, the figure is 3.34%.
As for `COc1ccc(NC(C)C(=O)N2CCN(c3ccccc3)CC2)cn1` (stereo not drawn), the cytotoxicity at 70.5 h was -3.71%.
With `CCCC(=O)N1CCC(C(=O)NCCN2CCC(C)CC2)CC1`, the cytotoxicity at 70.5 h was -1.92%.
The figure for `CCCN(C)C(=O)c1cc(S(=O)(=O)NCC)ccc1C` is -1.03%.
The figure for `CC1CCN(CCNC(=O)C2CCN(C(=O)C3CC3)CC2)CC1` is -3.28%; for `CS(=O)(=O)Nc1ccc(CNC(=O)CN2CCc3ccccc32)cc1` it is 7.44%.
As for `CN(C)CCN(Cc1ccc(C(F)(F)F)cc1)C(=O)c1cc[nH]n1`, the figure is 16.2%; as for `CN(C)CCN(Cc1ccc(Cl)cc1)C(=O)c1ccncc1`, -1.83%; as for `CCCN1CCN(S(=O)(=O)c2ncn(C)c2Cl)CC1`, -4.77%.
On to `Cc1ccc(NC(=O)NC(C)(C)c2noc(C)n2)cc1`, for which the cytotoxicity at 70.5 h was found to be 7.68%.
The figure for `COCc1ccc(CNC(=O)CN2CCc3ccccc32)cc1` is 1.24%.
The figure for `NS(=O)(=O)N1CCc2ccc(NC(=O)CCc3ccncc3)cc21` is 22.2%.
Take `NS(=O)(=O)N1CCc2ccc(NC(=O)CC(F)(F)F)cc21`: the cytotoxicity at 70.5 h is -1.59%.
